Data published in the NIST ThermoML archive (doi:10.1021/je500784s).
Values joined by “and” are separate entries in the source; they are usually repeats but may differ in a detail not shown here. Equal entries are not always repeated.

Settings: Liquid, Transpiration method

Cc1cccc(Br)c1 [1-bromo-3-methylbenzene]
Settings | vapor or sublimation pressure
274.2 K | 0.02006 kPa
276.2 K | 0.0234 kPa
278.2 K | 0.02748 kPa
278.3 K | 0.02776 kPa
279.2 K | 0.0289 kPa
280.3 K | 0.03259 kPa
281.3 K | 0.0351 kPa
282.2 K | 0.03686 kPa
282.5 K | 0.03833 kPa
284.2 K | 0.0421 kPa and 0.04171 kPa
287.2 K | 0.05299 kPa
287.3 K | 0.0526 kPa
290.2 K | 0.06611 kPa
290.4 K | 0.06761 kPa
293.2 K | 0.08432 kPa
293.6 K | 0.08569 kPa
296.2 K | 0.09718 kPa
296.7 K | 0.1039 kPa
299.2 K | 0.1199 kPa
299.8 K | 0.1279 kPa
302.2 K | 0.1478 kPa
302.8 K | 0.1548 kPa
305.2 K | 0.18 kPa
308.2 K | 0.2084 kPa and 0.2115 kPa and 0.2068 kPa

Cc1ccc(I)c(C)c1 [1-iodo-2,4-dimethylbenzene]
Settings | vapor or sublimation pressure
293.5 K | 0.00972 kPa
298.4 K | 0.01434 kPa
301.4 K | 0.01827 kPa
303.4 K | 0.02175 kPa
306.3 K | 0.02654 kPa
308.3 K | 0.03017 kPa
311.3 K | 0.03876 kPa
313.3 K | 0.04322 kPa
316.4 K | 0.05407 kPa
318.6 K | 0.06284 kPa
321.4 K | 0.07438 kPa
323.4 K | 0.08333 kPa
326.4 K | 0.1058 kPa and 0.1032 kPa
328.5 K | 0.1158 kPa

Cc1cccc(C)c1I [1-iodo-2,6-dimethylbenzene]
Settings | vapor or sublimation pressure [kPa]
284.5 K | 0.005
288.4 K | 0.00709
291.6 K | 0.00925
296.5 K | 0.014
298.4 K | 0.01572
299.5 K | 0.01696
301.5 K | 0.01972
303.3 K | 0.02303
306.4 K | 0.02867
308.3 K | 0.03267
311.4 K | 0.04222
313.6 K | 0.04835
316.4 K | 0.05818
318.4 K | 0.06657
321.2 K | 0.08028
323.4 K | 0.09228
326.3 K | 0.1123
328.5 K | 0.1277
331.3 K | 0.1526
333.4 K | 0.1721

Cc1ccccc1I [1-iodo-2-methylbenzene]
Settings | vapor or sublimation pressure [kPa]
283.2 K | 0.01623
288.2 K | 0.02387
293.2 K | 0.0355
301.2 K | 0.06212
304.2 K | 0.07615
307.4 K | 0.0943
310.3 K | 0.1131
313.1 K | 0.1354
316.2 K | 0.1655
319.3 K | 0.1983
322.1 K | 0.2325
325.1 K | 0.2843

Cc1cccc(I)c1 [1-iodo-3-methylbenzene]
Settings | vapor or sublimation pressure
275.7 K | 0.00715 kPa
279.3 K | 0.00936 kPa
281.9 K | 0.01131 kPa
283.5 K | 0.01241 kPa
286.4 K | 0.0157 kPa
289.3 K | 0.01945 kPa and 0.01996 kPa
293.1 K | 0.02757 kPa
293.2 K | 0.02683 kPa
298.1 K | 0.0403 kPa
298.2 K | 0.03887 kPa
302.9 K | 0.05424 kPa and 0.05679 kPa
308 K | 0.07665 kPa and 0.07718 kPa
313.1 K | 0.1065 kPa

Cc1cccc(C)c1Br [2-bromo-1,3-dimethylbenzene]
Settings | vapor or sublimation pressure
274.2 K | 0.00695 kPa
276.2 K | 0.0084 kPa
278.3 K | 0.01013 kPa
281.2 K | 0.01282 kPa
284.2 K | 0.0161 kPa
287.2 K | 0.02071 kPa
290.2 K | 0.02551 kPa
293.3 K | 0.0317 kPa and 0.03214 kPa
293.4 K | 0.03244 kPa
296.3 K | 0.03998 kPa
299.3 K | 0.04922 kPa
302.2 K | 0.06313 kPa
305.3 K | 0.07815 kPa
